The source of these data is ChEMBL document CHEMBL5653631, “A Potent and Selective ULK1 Inhibitor Suppresses Autophagy and Sensitizes Cancer Cells to Nutrient Stress” (iScience, 2018).

For assay [1], the target named is T1, Ephrin type-A receptor 3 (Homo sapiens) (UniProt P29320).
T1 sequence (whole entry): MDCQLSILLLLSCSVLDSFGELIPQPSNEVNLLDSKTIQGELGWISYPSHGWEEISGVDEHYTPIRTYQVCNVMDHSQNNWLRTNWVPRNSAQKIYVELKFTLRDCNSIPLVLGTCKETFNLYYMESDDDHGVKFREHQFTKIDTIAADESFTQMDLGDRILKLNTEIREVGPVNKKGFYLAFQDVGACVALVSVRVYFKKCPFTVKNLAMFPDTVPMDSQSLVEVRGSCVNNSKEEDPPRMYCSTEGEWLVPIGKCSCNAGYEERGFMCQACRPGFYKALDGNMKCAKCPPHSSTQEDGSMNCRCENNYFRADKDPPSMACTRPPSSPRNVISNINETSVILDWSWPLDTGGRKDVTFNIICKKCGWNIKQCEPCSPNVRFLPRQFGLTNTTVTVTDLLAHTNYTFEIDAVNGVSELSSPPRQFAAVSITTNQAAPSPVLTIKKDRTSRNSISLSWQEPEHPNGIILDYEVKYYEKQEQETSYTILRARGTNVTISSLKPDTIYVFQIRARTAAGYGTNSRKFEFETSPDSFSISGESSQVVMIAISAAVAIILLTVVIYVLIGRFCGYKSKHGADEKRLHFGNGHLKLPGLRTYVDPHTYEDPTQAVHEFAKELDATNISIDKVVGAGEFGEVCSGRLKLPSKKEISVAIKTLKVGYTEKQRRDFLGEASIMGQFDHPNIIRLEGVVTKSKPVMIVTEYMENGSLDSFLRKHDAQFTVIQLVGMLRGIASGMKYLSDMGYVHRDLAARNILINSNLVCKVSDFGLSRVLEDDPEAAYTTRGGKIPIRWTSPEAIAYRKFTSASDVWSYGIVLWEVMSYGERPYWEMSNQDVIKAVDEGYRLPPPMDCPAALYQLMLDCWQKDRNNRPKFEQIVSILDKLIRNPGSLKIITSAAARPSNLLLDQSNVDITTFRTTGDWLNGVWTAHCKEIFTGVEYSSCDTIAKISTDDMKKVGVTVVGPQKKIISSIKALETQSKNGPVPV
Description: Inhibition of human recombinant EphA3 at 40 nM related to control ULK1.

Assay [2] concerns the target T2, Discoidin domain-containing receptor 2 (Homo sapiens) (UniProt Q16832).
T2 sequence (whole entry): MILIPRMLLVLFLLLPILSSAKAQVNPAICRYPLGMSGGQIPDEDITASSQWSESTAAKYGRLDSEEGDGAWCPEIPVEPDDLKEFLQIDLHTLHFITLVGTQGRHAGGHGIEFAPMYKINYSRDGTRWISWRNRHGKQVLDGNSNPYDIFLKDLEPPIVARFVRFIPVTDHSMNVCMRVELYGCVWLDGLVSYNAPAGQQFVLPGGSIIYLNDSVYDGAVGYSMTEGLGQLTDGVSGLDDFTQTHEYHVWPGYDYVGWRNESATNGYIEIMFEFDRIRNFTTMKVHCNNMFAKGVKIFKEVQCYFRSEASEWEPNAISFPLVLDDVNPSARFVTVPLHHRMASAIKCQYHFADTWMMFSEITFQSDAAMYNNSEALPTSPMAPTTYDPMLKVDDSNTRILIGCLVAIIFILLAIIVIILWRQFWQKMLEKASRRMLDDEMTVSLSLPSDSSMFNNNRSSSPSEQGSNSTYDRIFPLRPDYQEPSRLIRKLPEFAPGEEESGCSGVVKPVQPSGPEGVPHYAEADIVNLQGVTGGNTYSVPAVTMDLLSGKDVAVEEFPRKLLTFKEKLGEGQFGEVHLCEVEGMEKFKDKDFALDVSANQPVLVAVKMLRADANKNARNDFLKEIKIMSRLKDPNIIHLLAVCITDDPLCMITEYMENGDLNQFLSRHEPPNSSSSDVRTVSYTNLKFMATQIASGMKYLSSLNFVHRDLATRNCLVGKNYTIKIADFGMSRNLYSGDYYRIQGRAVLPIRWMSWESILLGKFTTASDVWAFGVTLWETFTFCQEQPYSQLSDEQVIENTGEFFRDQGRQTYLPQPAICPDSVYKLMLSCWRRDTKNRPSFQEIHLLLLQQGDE
Description: Inhibition of human recombinant DDR2 at 40 nM in presence of ATP by radiometric assay relative to control.

Assay [3] concerns the target T3, Mitogen-activated protein kinase kinase kinase 2 (Homo sapiens) (UniProt Q9Y2U5).
T3 sequence (whole entry): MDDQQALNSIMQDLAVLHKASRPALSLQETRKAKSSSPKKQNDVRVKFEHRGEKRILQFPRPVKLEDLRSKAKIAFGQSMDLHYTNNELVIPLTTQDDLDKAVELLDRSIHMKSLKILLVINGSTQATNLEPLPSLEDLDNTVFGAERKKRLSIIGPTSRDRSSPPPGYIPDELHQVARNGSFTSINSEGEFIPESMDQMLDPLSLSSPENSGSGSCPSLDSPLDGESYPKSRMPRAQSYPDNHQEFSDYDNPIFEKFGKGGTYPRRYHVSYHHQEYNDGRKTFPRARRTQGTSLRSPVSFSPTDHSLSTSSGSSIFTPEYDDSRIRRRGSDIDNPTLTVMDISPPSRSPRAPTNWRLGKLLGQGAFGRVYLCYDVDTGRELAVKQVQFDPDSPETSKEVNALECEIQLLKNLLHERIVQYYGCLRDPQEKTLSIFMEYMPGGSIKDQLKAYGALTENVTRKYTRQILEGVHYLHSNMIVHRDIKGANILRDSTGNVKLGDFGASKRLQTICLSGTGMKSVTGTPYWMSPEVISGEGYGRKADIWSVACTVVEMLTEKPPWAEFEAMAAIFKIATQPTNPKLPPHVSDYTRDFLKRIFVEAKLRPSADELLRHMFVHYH
Description: Inhibition of human recombinant MAP3K2 at 40 nM in presence of ATP by radiometric assay relative to control.

Assay [4] addresses Dual specificity mitogen-activated protein kinase kinase 1 (Homo sapiens) (UniProt Q02750). The assay can be described thus: Inhibition of human recombinant MAP2K1 at 40 nM in presence of ATP by radiometric assay relative to control.
The target in assay [5] is Protein kinase C eta type (Homo sapiens) (UniProt P24723). The assay can be described thus: Inhibition of human recombinant PKCH at 500 nM related to control ULK1.
In assay [6] the target is Serine/threonine-protein kinase PAK 5 (Homo sapiens) (UniProt Q9P286). The assay can be described thus: Inhibition of human recombinant PAK5 at 500 nM in presence of ATP by radiometric assay relative to control.
Assay [7] addresses Platelet-derived growth factor receptor beta (Homo sapiens) (UniProt P09619). The assay can be described thus: Inhibition of human recombinant PDGFRb at 15 nM in presence of ATP by radiometric assay relative to control.
Assay [8] addresses Ribosomal protein S6 kinase alpha-5 (Homo sapiens) (UniProt O75582). The assay can be described thus: Inhibition of human recombinant MSK1 at 15 nM in presence of ATP by radiometric assay relative to control.
In assay [9] the target is T3, Mitogen-activated protein kinase kinase kinase 2 (Homo sapiens). The assay can be described thus: Inhibition of human recombinant MAP3K2 at 15 nM related to control ULK1.

For orientation: inhibition means the percentage by which the read-out fell short of the control.

Structures are written as SMILES.

Chain of Protein kinase C eta type (Homo sapiens) (P24723 whole entry): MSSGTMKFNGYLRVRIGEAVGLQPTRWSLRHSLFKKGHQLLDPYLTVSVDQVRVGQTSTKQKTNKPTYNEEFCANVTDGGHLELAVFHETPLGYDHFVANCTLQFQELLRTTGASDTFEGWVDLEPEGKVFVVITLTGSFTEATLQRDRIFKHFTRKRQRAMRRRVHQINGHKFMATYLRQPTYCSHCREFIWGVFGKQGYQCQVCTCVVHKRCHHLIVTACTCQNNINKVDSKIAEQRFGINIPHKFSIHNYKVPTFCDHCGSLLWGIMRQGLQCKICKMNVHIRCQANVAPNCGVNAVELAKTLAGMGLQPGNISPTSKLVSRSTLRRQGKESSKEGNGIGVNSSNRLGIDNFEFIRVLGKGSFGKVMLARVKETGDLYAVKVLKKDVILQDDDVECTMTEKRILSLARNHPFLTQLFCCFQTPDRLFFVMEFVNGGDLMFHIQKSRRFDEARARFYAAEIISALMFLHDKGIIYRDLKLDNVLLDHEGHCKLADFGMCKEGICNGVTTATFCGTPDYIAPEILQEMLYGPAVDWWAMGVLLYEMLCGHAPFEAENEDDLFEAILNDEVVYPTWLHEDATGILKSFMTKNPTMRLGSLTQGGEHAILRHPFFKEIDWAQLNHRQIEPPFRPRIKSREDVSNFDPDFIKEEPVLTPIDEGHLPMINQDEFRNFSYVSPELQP
Chain of Ribosomal protein S6 kinase alpha-5 (Homo sapiens) (O75582 whole entry, looked up): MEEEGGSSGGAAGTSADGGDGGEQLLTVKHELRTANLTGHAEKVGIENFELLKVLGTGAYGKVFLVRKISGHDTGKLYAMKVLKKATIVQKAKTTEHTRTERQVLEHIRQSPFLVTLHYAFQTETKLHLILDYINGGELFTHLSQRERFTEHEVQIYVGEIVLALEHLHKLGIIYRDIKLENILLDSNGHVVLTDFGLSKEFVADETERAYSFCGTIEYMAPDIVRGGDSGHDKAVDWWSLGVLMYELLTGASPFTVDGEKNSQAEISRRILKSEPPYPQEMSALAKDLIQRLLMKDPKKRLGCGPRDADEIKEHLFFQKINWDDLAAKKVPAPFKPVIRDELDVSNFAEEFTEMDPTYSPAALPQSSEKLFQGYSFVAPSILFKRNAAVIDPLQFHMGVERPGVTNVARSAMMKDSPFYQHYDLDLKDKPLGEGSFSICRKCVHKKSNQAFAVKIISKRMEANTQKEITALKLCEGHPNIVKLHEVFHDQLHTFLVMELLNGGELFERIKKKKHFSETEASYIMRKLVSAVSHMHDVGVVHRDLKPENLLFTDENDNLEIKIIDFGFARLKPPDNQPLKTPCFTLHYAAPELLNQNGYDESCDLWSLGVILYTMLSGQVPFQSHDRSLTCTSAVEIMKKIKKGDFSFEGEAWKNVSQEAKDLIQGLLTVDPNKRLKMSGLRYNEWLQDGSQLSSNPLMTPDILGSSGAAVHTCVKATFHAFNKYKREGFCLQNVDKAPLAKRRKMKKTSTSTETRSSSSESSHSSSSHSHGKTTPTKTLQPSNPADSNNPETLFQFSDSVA
Chain of Platelet-derived growth factor receptor beta (Homo sapiens) (P09619 whole entry): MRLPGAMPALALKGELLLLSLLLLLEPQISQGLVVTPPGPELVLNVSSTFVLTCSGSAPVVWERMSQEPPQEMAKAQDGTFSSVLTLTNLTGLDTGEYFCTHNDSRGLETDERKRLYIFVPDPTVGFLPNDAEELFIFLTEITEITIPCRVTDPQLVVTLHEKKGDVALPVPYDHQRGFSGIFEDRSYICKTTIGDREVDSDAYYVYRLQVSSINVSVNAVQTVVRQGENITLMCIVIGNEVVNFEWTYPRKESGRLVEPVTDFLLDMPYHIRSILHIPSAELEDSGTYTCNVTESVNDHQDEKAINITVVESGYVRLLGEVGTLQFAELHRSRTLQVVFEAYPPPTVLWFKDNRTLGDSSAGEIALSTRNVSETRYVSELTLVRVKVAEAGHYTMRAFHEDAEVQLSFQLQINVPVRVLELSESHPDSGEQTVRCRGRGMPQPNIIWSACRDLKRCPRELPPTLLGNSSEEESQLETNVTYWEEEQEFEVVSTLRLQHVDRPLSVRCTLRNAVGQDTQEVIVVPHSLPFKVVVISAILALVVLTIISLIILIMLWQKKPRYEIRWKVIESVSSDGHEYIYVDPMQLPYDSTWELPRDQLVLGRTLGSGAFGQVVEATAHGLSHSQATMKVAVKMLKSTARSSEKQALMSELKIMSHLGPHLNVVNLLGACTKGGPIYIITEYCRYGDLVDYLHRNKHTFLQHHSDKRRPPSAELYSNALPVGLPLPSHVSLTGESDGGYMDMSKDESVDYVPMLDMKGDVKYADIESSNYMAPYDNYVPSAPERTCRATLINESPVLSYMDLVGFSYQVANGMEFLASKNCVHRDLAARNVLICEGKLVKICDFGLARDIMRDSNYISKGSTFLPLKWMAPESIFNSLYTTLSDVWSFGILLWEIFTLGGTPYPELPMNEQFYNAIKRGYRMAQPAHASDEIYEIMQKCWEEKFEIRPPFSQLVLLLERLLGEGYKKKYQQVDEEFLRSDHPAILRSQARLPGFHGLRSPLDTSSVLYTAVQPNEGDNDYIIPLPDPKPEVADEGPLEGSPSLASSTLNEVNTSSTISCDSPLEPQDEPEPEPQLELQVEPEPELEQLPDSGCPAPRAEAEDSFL
Chain of Dual specificity mitogen-activated protein kinase kinase 1 (Homo sapiens) (Q02750 whole entry): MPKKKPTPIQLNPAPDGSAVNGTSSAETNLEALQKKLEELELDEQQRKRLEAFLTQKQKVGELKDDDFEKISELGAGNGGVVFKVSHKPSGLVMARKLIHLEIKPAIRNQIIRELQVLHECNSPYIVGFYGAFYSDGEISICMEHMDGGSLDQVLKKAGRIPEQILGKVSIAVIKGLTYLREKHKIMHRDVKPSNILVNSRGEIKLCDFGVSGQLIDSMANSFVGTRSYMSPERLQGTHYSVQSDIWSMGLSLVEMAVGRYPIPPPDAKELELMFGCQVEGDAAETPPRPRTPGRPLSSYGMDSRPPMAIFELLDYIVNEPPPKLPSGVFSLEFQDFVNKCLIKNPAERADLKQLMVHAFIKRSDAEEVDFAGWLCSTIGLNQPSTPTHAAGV
Chain of Serine/threonine-protein kinase PAK 5 (Homo sapiens) (Q9P286 whole entry, looked up): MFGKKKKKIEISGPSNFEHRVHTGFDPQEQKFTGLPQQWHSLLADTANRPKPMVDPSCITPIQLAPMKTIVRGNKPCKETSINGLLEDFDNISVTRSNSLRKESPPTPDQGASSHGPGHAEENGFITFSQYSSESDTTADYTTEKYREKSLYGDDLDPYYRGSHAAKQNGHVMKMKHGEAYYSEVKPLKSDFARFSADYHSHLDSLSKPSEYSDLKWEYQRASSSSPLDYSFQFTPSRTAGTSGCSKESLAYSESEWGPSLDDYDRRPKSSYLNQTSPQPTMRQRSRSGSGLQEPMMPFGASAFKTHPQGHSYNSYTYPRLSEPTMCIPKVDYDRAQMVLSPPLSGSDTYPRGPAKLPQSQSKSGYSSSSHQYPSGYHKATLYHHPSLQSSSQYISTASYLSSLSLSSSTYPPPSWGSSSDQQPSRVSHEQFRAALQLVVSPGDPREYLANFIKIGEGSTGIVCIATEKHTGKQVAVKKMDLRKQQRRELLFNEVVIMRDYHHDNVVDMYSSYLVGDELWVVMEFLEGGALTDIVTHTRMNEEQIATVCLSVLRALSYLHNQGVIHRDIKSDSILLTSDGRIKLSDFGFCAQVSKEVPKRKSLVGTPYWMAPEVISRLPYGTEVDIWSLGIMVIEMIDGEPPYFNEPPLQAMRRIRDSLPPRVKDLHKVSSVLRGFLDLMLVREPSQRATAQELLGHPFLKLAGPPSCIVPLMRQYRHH

On to `O=C(N[C@@H](C1CC1)C(F)(F)F)c1cc(-c2cnn3cc(-c4ccc(F)cc4)cnc23)cs1`, for which the fold change (FC) in assay [1] was 0.21. For the same molecule, the inhibition in [2], in assay [3] and in assay [4] was 0% in each case.

Regarding `CNC(=O)c1ccccc1Oc1nc(Nc2cc(OC)c(OC)c(OC)c2)ncc1Br`, in assay [5], the fold change (FC) is 0.09. For the same molecule, the inhibition in [6] amounted to 5%.

For `CC(C)[C@H](NC(=O)c1cc(-c2cnn3cc(-c4ccc(OCCN5CCCCC5)cc4)cnc23)cs1)C(F)(F)F`, the inhibition in [7] amounted to 0%; in [8], 2%. In [9], the fold change (FC) was determined as 0.03.
